Read-outs that look alike come from different tables or passages of the source. Where only a bound is given, the exact number is not on record here.

IC50 data for 36 compounds are collected here from PMC9611727, “Optimization of a Novel Mandelamide-Derived Pyrrolopyrimidine Series of PERK Inhibitors” (Pharmaceutics, 2022).

One assay addresses T1, PERK (Homo sapiens, UniProt Q9NZJ5).
T1 sequence (Q9NZJ5 30-1116): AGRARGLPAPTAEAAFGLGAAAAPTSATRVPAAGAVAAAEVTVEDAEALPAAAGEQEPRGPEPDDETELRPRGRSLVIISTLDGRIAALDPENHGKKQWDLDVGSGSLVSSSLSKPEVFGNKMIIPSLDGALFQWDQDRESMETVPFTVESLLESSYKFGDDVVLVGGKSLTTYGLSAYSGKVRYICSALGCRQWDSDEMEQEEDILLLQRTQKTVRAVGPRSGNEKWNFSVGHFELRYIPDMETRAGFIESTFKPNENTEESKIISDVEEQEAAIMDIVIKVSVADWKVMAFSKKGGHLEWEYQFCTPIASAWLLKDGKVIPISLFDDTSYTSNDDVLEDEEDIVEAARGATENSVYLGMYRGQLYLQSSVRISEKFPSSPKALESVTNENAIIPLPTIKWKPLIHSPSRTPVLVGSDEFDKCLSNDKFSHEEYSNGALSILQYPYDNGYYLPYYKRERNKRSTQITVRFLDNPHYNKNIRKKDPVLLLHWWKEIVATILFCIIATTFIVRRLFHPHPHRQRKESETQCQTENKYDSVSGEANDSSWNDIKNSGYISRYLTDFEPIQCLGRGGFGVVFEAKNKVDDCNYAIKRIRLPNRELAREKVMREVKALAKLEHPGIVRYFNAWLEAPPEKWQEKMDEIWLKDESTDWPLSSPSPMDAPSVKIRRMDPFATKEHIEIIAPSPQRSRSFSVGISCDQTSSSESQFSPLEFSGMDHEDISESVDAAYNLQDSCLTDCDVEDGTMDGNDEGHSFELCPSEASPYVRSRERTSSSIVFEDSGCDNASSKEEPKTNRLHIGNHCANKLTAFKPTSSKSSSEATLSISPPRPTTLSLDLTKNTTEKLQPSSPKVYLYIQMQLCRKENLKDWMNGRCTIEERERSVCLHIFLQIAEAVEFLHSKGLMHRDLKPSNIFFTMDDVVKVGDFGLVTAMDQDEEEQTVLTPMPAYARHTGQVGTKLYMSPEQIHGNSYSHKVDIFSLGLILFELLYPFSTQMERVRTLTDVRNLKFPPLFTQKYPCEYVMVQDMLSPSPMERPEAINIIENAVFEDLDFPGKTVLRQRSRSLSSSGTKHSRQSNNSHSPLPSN
As to the kind of experiment: PERK biochemical LanthaScreen TR-FRET assay (GFP-eIF2a phosphorylation). How it is done:
Methods used to evaluate biochemical PERK activity are described and published elsewhere. In brief, biochemical PERK activity is evaluated using a LanthaScreenTM ([…]) TR-FRET assay to detect phosphorylation of a GFP-tagged eIF2a substrate (ThermoFisher). Excitation at […] of a terbium chelate donor fluorophore in an eIF2a antibody results in energy transfer to GFP acceptor fluorophore upon eIF2a phosphorylation by PERK. Reaction buffer was composed of 50 mM HEPES (pH 7.4), 10 mM MgCl2, 1 mM EGTA and 0.01% (v/v) BrijTM-35. Reactions were initiated by the addition of substrate and ATP, followed by incubation for 1 h at RT prior to addition of EDTA and the anti-peIF2a antibody. FRET was measured by an EnVision Plate Reader (PerkinElmer). Data were plotted as percent inhibition along a 10-point 3-fold dilution series of inhibitors. IC50 values were calculated using 4-parameter logistical fitting in XLFit.
(§1) The PERK activity of analog I was evaluated using cell-free biochemical assays. In these assays, PERK phosphorylation of eIF2a was assessed using a FRET-based labelled protein assay. Compounds were then evaluated for cellular activity by quantifying inhibition of eIF2a phosphorylation in HEK293 cells treated with the ER inducer tunicamycin [7].

The next assay relates to p-eIF2α. As to the kind of experiment: Cellular PERK inhibition: p-eIF2a TR-FRET in tunicamycin-treated HEK293-EGFP-eIF2a cells. It counts as cell-based. How it is done: Methods used to evaluate in vitro cellular PERK inhibition are described and published elsewhere. In brief, stableHEK293 cells were created using lentiviral particles harboring a GFP-eIF2a expression vector. Transfectants were selected by puromycin and enriched using fluorescent cell sorting based on GFP expression. HEK293-EGFP-eIF2a cells were plated at 5000 cells/well in 384-well assay plates and incubated overnight. The following day, pyrrolopyrimidine analogs were added to wells using an Echo acoustic dispenser and incubated for 30 min. ER stress was induced by the addition of tunicamycin to the wells at […] for 2 h. Cells were lysed and peIF2a was evaluated using a TR-FRET system, as described above.
as §1
On the technique in general: Time-resolved FRET reads energy transfer from a long-lived donor to a nearby acceptor.

The mark [1] stands for this setting: cell-free TR-FRET, GFP-eIF2a substrate, read-out: PERK IC50.
Where [2] appears, read: Homo sapiens, HEK293 cells, tunicamycin-induced ER stress, read-out: p-eIF2α IC50.
Where [3] appears, read: bound stated, read-out: biochemical potency.
The mark [4] stands for this setting: bound stated, read-out: cellular potency.

Consider `Cc1nc(N)c2c(-c3ccc(NC(=O)[C@H](O)c4cccc(C#N)c4)cc3C)cn(C)c2n1` [Compound 36], for which the IC50 on PERK (setting [1]) was 8 nM; in the assay on p-eIF2α (setting [2]), 325 nM.
The like results for `CO[C@@H](C(=O)Nc1ccc(-c2cn(C)c3ncnc(N)c23)c(C)c1)c1ccccc1` [Compound 21] were, in that order, 14 nM and 174 nM.
Regarding `Cc1nc(N)c2c(-c3cnc(NC(=O)[C@H](O)c4cccc(F)c4)nc3C)cn(C)c2n1` [Compound 76], the values for the IC50 at PERK (setting [1]) and in the assay with p-eIF2α (setting [2]) were 647 nM and greater than 10000 nM, respectively.
As for `Cc1cc(NC(=O)[C@H](N)c2ccccc2)ccc1-c1cn(C)c2ncnc(N)c12` [Compound 23], the IC50 was 33 nM on PERK (setting [1]) and 581 nM with p-eIF2α (setting [2]).
`Cc1nc(N)c2c(-c3ccc(NC(=O)[C@H](O)c4cccc(F)c4)cc3C(F)(F)F)cn(C)c2n1` [Compound 58]: the IC50 came out at 8.5 nM on PERK (setting [1]) and 204 nM in the assay with p-eIF2α (setting [2]).
The like results for `Cc1cc(NC(=O)c2ccccc2)ccc1-c1cn(C)c2ncnc(N)c12` [Compound 16] were, in that order, 168 nM and 3960 nM.
Take `Cc1cc(NC(=O)Nc2ccccc2)ccc1-c1cn(C)c2ncnc(N)c12` [Compound 19]: the IC50 is 21 nM on PERK (setting [1]) and 211 nM in the assay on p-eIF2α (setting [2]).
The like results for `Cc1nc(N)c2c(-c3ccc(NC(=O)[C@H](O)c4cccc(C5CC5)c4)cc3C)cn(C)c2n1` [Compound 35] were, in that order, 5.9 nM and 17 nM.
The like results for `Cc1nc(N)c2c(-c3ccc(NC(=O)[C@H](O)c4cccc(F)c4)cc3F)cn(C)c2n1` [Compound 46] were, in that order, 2.2 nM and 41 nM.
As for `Cc1nc(N)c2c(-c3ccc(NC(=O)[C@H](O)c4ccccc4Cl)cc3C)cn(C)c2n1` [Compound 29], the IC50 on PERK (setting [1]) came to 107 nM; with p-eIF2α (setting [2]), 713 nM.
The like results for `Cc1nc(N)c2c(-c3ccc(NC(=O)[C@H](O)c4cncc(Cl)c4)cc3C)cn(C)c2n1` [Compound 44] were, in that order, 17 nM and 129 nM.
The like results for `Cc1nc(N)c2c(-c3ccc(NC(=O)[C@H](O)c4cccc(S(C)(=O)=O)c4)cc3C)cn(C)c2n1` [Compound 37] were, in that order, greater than 1000 nM and greater than 10000 nM.
`Cc1nc(N)c2c(-c3ccc(NC(=O)[C@H](O)c4cccc(C(F)(F)F)c4)nc3C)cn(C)c2n1` [Compound 73]: the IC50 is 13 nM at PERK (setting [1]) and 51 nM in the assay on p-eIF2α (setting [2]).
The like results for `C#Cc1cccc([C@@H](O)C(=O)Nc2ccc(-c3cn(C)c4nc(C)nc(N)c34)c(C)c2)c1` [Compound 32] were, in that order, 3 nM and 7.8 nM.
As to `CCc1cccc([C@@H](O)C(=O)Nc2ccc(-c3cn(C)c4nc(C)nc(N)c34)c(Cl)c2)c1` [Compound 57], the IC50 at PERK (setting [3]) is less than 5 nM; with p-eIF2α (setting [2]), 14 nM; in the assay on p-eIF2α (setting [4]), less than 15 nM.
`Cc1cccc([C@@H](O)C(=O)Nc2ccc(-c3cn(C)c4nc(C)nc(N)c34)c(F)c2)c1` [Compound 49]: the IC50 on PERK (setting [1]) came out at 1.1 nM; in the assay with p-eIF2α (setting [2]), 17 nM.
The like results for `Cc1cc(NC(=O)Cc2ccccc2)ccc1-c1cn(C)c2ncnc(N)c12` [Compound 14] were, in that order, 5.2 nM and 41 nM.
The like results for `Cc1nc(N)c2c(-c3c(C)cc(NC(=O)C(O)c4cccc(F)c4)cc3C)cn(C)c2n1` (centres unmarked) [Compound 68] were, in that order, 13 nM and 82 nM.
Consider `Cc1nc(N)c2c(-c3ccc(NC(=O)[C@H](O)c4cncc(F)c4)cc3C)cn(C)c2n1` [Compound 43], for which the IC50 on PERK (setting [1]) was 52 nM; in the assay with p-eIF2α (setting [2]), 562 nM.
The like results for `Cc1cc(NC(=O)[C@H](O)c2ccccc2)ccc1-c1cn(C)c2ncnc(N)c12` [Compound 13] were, in that order, 1.8 nM and 23 nM.
The like results for `Cc1nc(N)c2c(-c3ccc(NC(=O)[C@H](O)c4cncc(C(F)(F)F)c4)cc3C)cn(C)c2n1` [Compound 45] were, in that order, 19 nM and 165 nM.
The like results for `Cc1nc(N)c2c(-c3ccc(NC(=O)[C@H](O)c4cccc(F)c4)c(F)c3)cn(C)c2n1` [Compound 69] were, in that order, 1 nM and 26 nM.
With `Cc1cc(F)cc([C@@H](O)C(=O)Nc2ccc(-c3cn(C)c4nc(C)nc(N)c34)c(F)c2)c1` [Compound 52], the IC50 on PERK (setting [3]) was less than 5 nM; on PERK (setting [1]), 1.1 nM; in the assay on p-eIF2α (setting [2]) it was 11 nM; with p-eIF2α (setting [4]), less than 15 nM.
Consider `Cc1nc(N)c2c(-c3ccc(NC(=O)[C@H](O)c4cccc(Cl)c4)cc3Cl)cn(C)c2n1` [Compound 55], for which the values for the IC50 at PERK (setting [1]) and in the assay with p-eIF2α (setting [2]) were 1.6 nM and 17 nM, respectively.
With `Cc1nc(N)c2c(-c3ccc(NC(=O)[C@H](O)c4cccc(C(F)(F)F)c4)cc3Cl)cn(C)c2n1` [Compound 54], the IC50 came out at 2.7 nM on PERK (setting [1]) and 21 nM in the assay on p-eIF2α (setting [2]).
The like results for `Cc1nc(N)c2c(-c3ccc(NC(=O)[C@H](O)c4ccccc4F)cc3C)cn(C)c2n1` [Compound 25] were, in that order, 102 nM and 303 nM.
The like results for `Cc1nc(N)c2c(-c3ccc(NC(=O)[C@H](O)c4cccc(Br)c4)cc3)cn(C)c2n1` [Compound 64] were, in that order, 1.5 nM and 14 nM.
The like results for `Cc1nc(N)c2c(-c3ccc(NC(=O)C(O)c4ccccc4C)cc3C)cn(C)c2n1` (centres unmarked) [Compound 31] were, in that order, 26 nM and 122 nM.
Turning to `Cc1cccc([C@@H](O)C(=O)Nc2ccc(-c3cn(C)c4nc(C)nc(N)c34)c(C)c2)c1` [Compound 30], the IC50 at PERK (setting [1]) was 14 nM; in the assay with p-eIF2α (setting [2]), 83 nM.
The like results for `Cc1nc(N)c2c(-c3c(C)cc(NC(=O)C(O)c4cccc(F)c4)cc3F)cn(C)c2n1` (centres unmarked) [Compound 67] were, in that order, 22 nM and 78 nM.
The like results for `Cc1nc(N)c2c(-c3ccc(NC(=O)[C@H](O)c4cccc(C(F)(F)F)c4)cc3)cn(C)c2n1` [Compound 63] were, in that order, 2.8 nM and 13 nM.
On to `Cc1nc(N)c2c(-c3cnc(NC(=O)[C@H](O)c4cccc(F)c4)cc3C)cn(C)c2n1` [Compound 74], for which the results for the IC50 on PERK (setting [1]) and with p-eIF2α (setting [2]) were 8.3 nM and 146 nM, respectively.
The like results for `Cc1cccc([C@@H](O)C(=O)Nc2ccc(-c3cn(C)c4nc(C)nc(N)c34)c(Cl)c2)c1` [Compound 56] were, in that order, 4.1 nM and 18 nM.
The like results for `Cc1nc(N)c2c(-c3ccc(NC(=O)[C@H](O)c4cc(F)cc(C#N)c4)cc3C)cn(C)c2n1` [Compound 42] were, in that order, 4.2 nM and 32 nM.
Take `Cc1nc(N)c2c(-c3ccc(NC(=O)[C@H](O)c4cccc(C(F)(F)F)c4)cc3F)cn(C)c2n1` [Compound 47, (R)-N-(4-(4-amino-2,7-dimethyl-7H-pyrrolo[2,3-d]pyrimidin-5-yl)-3-fluorophenyl)-2-hydroxy-2-(3-(trifluoromethyl)phenyl)acetamide]: the IC50 on PERK (setting [3]) is less than 5 nM; at PERK (setting [1]) it was 5.1 nM; with p-eIF2α (setting [2]), 11 nM; with p-eIF2α (setting [4]) it was less than 15 nM.
In the case of `Cc1nc(N)c2c(-c3ccc(NC(=O)[C@H](O)c4cccc(Br)c4)cc3C)cn(C)c2n1` [Compound 33], the IC50 worked out at 3 nM on PERK (setting [1]) and 14 nM in the assay on p-eIF2α (setting [2]).
